Measured values from ChEMBL document CHEMBL1130679, “Novel phosphate mimetics for the design of non-peptidyl inhibitors of protein tyrosine phosphatases” (Bioorg Med Chem Lett, 1998).

Legend:
[1] = molecular target: T1, Tyrosine-protein phosphatase non-receptor type 1 (Homo sapiens, UniProt P18031); experiment: Inhibitory activity against protein tyrosine phosphatase 1B (PTP1B) using fluorescein diphosphate as substrate at Km concentration (20 uM)
T1 sequence (P18031 whole entry): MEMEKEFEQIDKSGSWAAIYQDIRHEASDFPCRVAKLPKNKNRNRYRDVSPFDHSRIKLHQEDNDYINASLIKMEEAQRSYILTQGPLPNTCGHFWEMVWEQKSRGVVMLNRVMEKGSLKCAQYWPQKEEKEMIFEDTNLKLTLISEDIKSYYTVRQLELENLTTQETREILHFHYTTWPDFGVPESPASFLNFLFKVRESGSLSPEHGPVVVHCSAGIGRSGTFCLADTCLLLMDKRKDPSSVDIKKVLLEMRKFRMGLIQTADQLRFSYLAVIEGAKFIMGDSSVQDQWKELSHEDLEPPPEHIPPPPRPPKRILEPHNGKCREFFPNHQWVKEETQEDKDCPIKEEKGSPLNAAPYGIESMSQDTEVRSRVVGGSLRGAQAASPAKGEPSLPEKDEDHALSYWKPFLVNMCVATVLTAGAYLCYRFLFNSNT

[2] = molecular target: T2, Tyrosine-protein phosphatase non-receptor type 1 (Homo sapiens) (UniProt P18031); experiment: Inhibitory activity against protein tyrosine phosphatase 1B (PTP1B) at 500 uM conc. using fluorescein diphosphate as substrate at Km concentration (20 uM)
T2 sequence (whole entry): T1 sequence (P18031 whole entry)

[3] = molecular target: T1, Tyrosine-protein phosphatase non-receptor type 1; experiment: Binding affinity against Protein tyrosine phosphatase-1B (PTP1B)
[4] = molecular target: T1, Tyrosine-protein phosphatase non-receptor type 1; experiment: Inhibitory activity against PTP1B as a model Protein tyrosine […] (PTP) using fluorescein diphosphate as substrate at Km concentration (20 uM) at th

IC50 [1] [µM] | inhibition [2] [%] | SMILES | also measured
435 |  | O=C(O)C(F)(F)c1cccc(-c2ccccc2)c1 | 
 | 15 | c1ccc(-c2cccc(Cc3nnn[nH]3)c2)cc1 | 
230 |  | FC(F)(c1ccc2ccccc2c1)c1nnn[nH]1 | 
35 |  | O=P(O)(O)OC(F)(F)c1ccc2ccccc2c1 | 
 | 12 | c1ccc2cc(Cc3nnn[nH]3)ccc2c1 | 
250 |  | O=C(O)C(F)(Oc1cccc(-c2ccccc2)c1)C(=O)O | 
 | 10 | O=S(=O)(O)Cc1cccc(-c2ccccc2)c1 | 
320 |  | O=C(O)C(F)(Oc1ccc2ccccc2c1)C(=O)O | 
195 |  | FC(F)(c1cccc(-c2ccccc2)c1)c1nnn[nH]1 | Ki [3]: 98 µM
 | 4 | O=C(O)Cc1ccc2ccccc2c1 | 
 | 17 | O=P(O)(O)Cc1cccc(-c2ccccc2)c1 | 
 | 9 | O=P(O)(O)Cc1ccc2ccccc2c1 | 
 |  | O=P(O)(O)OC(F)(F)c1cccc(-c2ccccc2)c1 | IC50 [4]: 15 µM
640 |  | O=C(O)C(F)(F)c1ccc2ccccc2c1 | 
 | 5 | O=S(=O)(O)Cc1ccc2ccccc2c1 | 

SMILES | IC50 [1] [µM] | inhibition [2] [%] | also measured
O=C(O)Cc1cccc(-c2ccccc2)c1 |  | 10 | 
O=S(=O)(O)C(F)(F)c1cccc(-c2ccccc2)c1 | 115 |  | Ki [3]: 49 µM
O=S(=O)(O)C(F)(F)c1ccc2ccccc2c1 | 175 |  | 
